Two molecules from patent US7977320B2, “Method of increasing efficacy of tumor cell killing using combinations of anti-neoplastic agents” (The Regents of the University of California, priority 2004, dated 2011) can be followed below.

What all share (format): cell-based
One assay has as its system SHP-1. Description: SHP-1 expression in primary AML samples after 5-azacytidine treatment. To be noted: 2 of 5 SHP-1-negative primary AML samples.
Assay [1] deals with primary AML cells. Kind of assay: proliferation assay of primary AML samples after 5-azacytidine treatment. To be noted: for inhibition of proliferation: Syk+ cells, FIG. 7A. As to the method: (§1) To evaluate the effect of certain chemotherapeutic agents on signal transduction through Syk and/or SHP-1, experiments were performed on primary AML samples. Primary leukemia cells were treated with 5-azacytidine for 4 days under otherwise normal cell culture growth conditions. The cells were then washed twice, and a proliferation assay was performed as described above. The basal level of proliferation (untreated cells) was considered as 100% and the percent change was calculated for each condition. Error bars indicate the SEM.

For the next assay, the system named is Syk. Description: Syk expression in primary AML samples after 5-azacytidine treatment. Here is the method:
Based on these observations, we tested a panel of 25 primary AML samples for Syk expression using standard Western blotting and an anti-Syk or anti-ZAP-70 mouse monoclonal antibody from Santa Cruz Biochem.
as §1
Syk is not only an important protein kinase, but also a tumor suppressor. In many cancer cells, Syk is silenced by hypemethylation of the DNA encoding it. This hypermethylation can lead to absence of Syk expression and, as a result, to unresponsiveness of tumor cells to various treatments. To block possible hyper-methylation and restore Syk expression in Syk-negative primary AML samples, we used 5-azacytidine. Other hypomethylating agents could work as well. The results of the experiments are depicted in FIG. 7, Panels A-D.

Assay [2] concerns primary AML cells. Kind of assay: proliferative response of primary AML samples to GO. To be noted: for responsive samples: FIG. 3A. Here is the method:
More specifically, for Panel A, colony formation assays were performed as follows: HL-60 cells were treated and cultured in 0.3% agarose in triplicate for each condition in the presence of 0.01 ug/ml of antibodies. After 14 days of culture, the number of colonies was enumerated in each dish. The basal level of colony formation (>400 per dish) was considered as 100% and the percentage of stimulation was calculated for each condition. Error bars in the figure indicate the SEM. Each graph is representative of at least 3 independent experiments. For Panel B, primary leukemia cells were cultured for 48 hours in the presence of 0.01 ug/ml of anti-CD33 mAb or control mouse IgG. Each bar in the figure summarizes (median) the proliferative response of that group. The basal level of untreated cell proliferation (CPM>5500 CPM) was considered as 0%. Inhibition was calculated as the percent change for that condition. Error bars indicate the SEM.
With the knowledge of the effect of a naked anti-CD33 antibody on Syk activation and cell proliferation or death, we investigated the effect of an immunotoxin (GO; Mylotarg® (Wyeth)) on these characteristics. GO was selected based on its approval status by the FDA. Proliferation assays were performed as described above. Various concentration of GO were added at the initiation of 48 hour culture. The basal levels of cell proliferation (untreated cells) were >10000 cpm and were considered as 100%. The percentage of change was calculated for each condition for each sample. Error bars indicate the SEM.

For the next assay, the system named is HL-60 cells. Kind of assay: proliferation assay of HL-60 cells transfected with Syk si-RNA or control RNA. To be noted: Syk si-RNA-transfected HL-60 cells versus control RNA treated or untreated cells, FIG. 4B. Here is the method: To test whether there is a correlation between response of AML cells to CD33 ligation and/or GO treatment and the level of their Syk expression, “blocking” experiments were performed. In order to block Syk expression, we used Syk-si-RNA transfection. More specifically, for the results presented in FIGS. 4A and 4B, HL-60 cells were transfected with Syk si-RNA or control RNA and grown in cell culture under normal conditions for these cells. 72 hours post-transfection, cells were cultured in the presence of optimal ([…]) concentration of mAb, as disclosed above (FIG. 4A) or the indicated concentrations of Mylotarg® (Wyeth) (FIG. 4B). Proliferation assays were performed as described above. The basal level of proliferation was >10000 CPM (considered as 100%). Each point represents the percent change for that condition. Error bars indicate the SEM. Bars compared and marked with asterisk have a statistically significant difference. For FIG. 4C, HL-60 cells were transfected with Syk si-RNA or control RNA. After 72 hours of culture under typical culture conditions, cell lysates were prepared and used to generate immune precipitates with the appropriate mAb.

For `Nc1ncn([C@@H]2O[C@H](CO)[C@@H](O)[C@H]2O)c(=O)n1` [5-azacytidine, 5-Azacytidine], the “samples with restored SHP-1” value in the assay with SHP-1 is reported as 40%. Moreover, the “level of inhibition of proliferation” value in the assay with primary AML cells [1] (5-aza alone, Syk-positive or SHP-positive samples versus negative samples) was “significantly higher”; in the assay with primary AML cells [1] (Syk-negative or SHP-1-negative samples, 5-aza combined with Mylotarg), “comparable to positive samples”; with primary AML cells [1] (Syk-negative or SHP-1-negative samples, 5-aza combined with anti-CD33 mAb), “comparable to positive samples”. For the same molecule, the inhibition of proliferation entry in the assay with primary AML cells [1] (5-azacytidine 4 days combined with GO) and in the assay with primary AML cells [1] (5-azacytidine 4 days combined with naked anti-CD33 antibody) was “increased inhibition of proliferation” in each case. Moreover, the “effect of anti-CD33 antibodies on proliferation” value in the assay on primary AML cells [1] (Syk- cells (non-responders) treated with the hypomethylating agent, FIG. 7B) is “substantially increased”. For the same molecule, the “samples with restored Syk expression” value in the assay on Syk (5 of 15 Syk-negative primary AML samples) is given as 33%. Further, the “level of Syk expression” value with Syk (Syk-positive samples (data not shown)) is “un-changed”.
For gemtuzumab ozogamicin [GO], the responsive samples stood at 17% with primary AML cells [2] (Syk-negative primary AML samples) and 83% with primary AML cells [2] (Syk-positive primary AML samples). Besides, in the assay on primary AML cells [2] (Syk-positive samples versus Syk-negative samples, p<0.003), the “level of inhibition of proliferation” value is listed as “higher than in Syk-negative samples”. Besides, in the assay with primary AML cells [2] (both Syk-positive and Syk-negative samples, 48 hour culture, FIG. 3B), the proliferative response result is “dose-dependent inhibition”. Further, in the assay with HL-60 cells, the “response of proliferation to treatment” value is “significantly lower response”.
